Results taken from patent US12384751B2, “Allosteric activators of the ALPHA1A-adrenergic receptor” (The Cleveland Clinic Foundation, priority 2019, dated 2025).
“Also recorded” adds a separate entry of the source.

Legend:
[1] = tested on: 3×TG Alzheimer's Disease (AD) mouse model; experiment: Hippocampal CA1 electrophysiology (LTP, input-output, paired-pulse ratio) in 3×TG mice; assay type: in vivo
Method: AD mice were first randomized and sorted into control or treatment groups. […] 14 AD mice from each treatment group received Compound 3 in the drinking water (2.611 mg/kg/bw) to deliver a daily dose near the peak potentiation of the cAMP response in the brain at 10^−8M based upon the PAM assay and pharmacokinetics. This was achieved by adding Compound 3 to the drinking water at 32 uM, assuming the mice drink 6 ml/day, with only 10% of bioavailable drug reaching the brain. The drug was administered in the drinking water for 10 months, starting at age 2 months, then subjected to either different cognitive behavioral tests or electrophysiology at age 12 months to maximize the manifestations of AD symptoms in these mice. Mice are maintained on the drug for the duration of the studies and blinded to the operator.
At 12 months of age mice were subjected to long term potentiation (LTP) (FIG. 25).
Electrophysiology. Hippocampi are removed and slices cut 400 μm thick and immediately transferred to an oxygenated holding chamber filled with artificial cerebrospinal fluid, acclimated and transferred to recording chambers. Micropipettes are backfilled with NaCl solution and placed in the stratum radiatum. Evoked field excitatory postsynaptic potentials (fEPSPs) are measured in current clamp mode. An ISO-flex stimulator paired with a 7.5-cm bipolar tungsten-stimulating electrode is used for presynaptic stimulation of the Schaffer collateral-commissural fibers. Signals are converted from analog to digital and electronic cycling and noise filtered. Basal synaptic transmission is assessed by determining input-output curves, generated by applying a stepwise 5 μA increase in stimulation intensity. Responses are elicited every 20 seconds with duration of 100 μs per pulse. Short-term plasticity is investigated by assessing paired-pulse facilitation (PPF) by applying two pulses with interpulse intervals of 35-300 ms. A baseline response of 30 min is recorded immediately after PPF, which is followed by θ-burst stimulation (TBS) given at 80% maximal response to induce LTP. fEPSPs are recorded at 50% maximal response every 20 seconds for 90 minutes.

[2] = Blood pressure in APP (London Mutation) AD mice and WT controls; assay type: in vivo, mouse; details: 40 mg/kg/bw daily
[3] = biological target: T1, α1B-AR (Homo sapiens, UniProt P35368); experiment: Effect of compound on binding affinity of norepinephrine at α1B-AR; details: 10^−5M
T1 construct: expressed in transfected cells; host or cells: Rat-1 fibroblast cells
T1 sequence (P35368 1-520): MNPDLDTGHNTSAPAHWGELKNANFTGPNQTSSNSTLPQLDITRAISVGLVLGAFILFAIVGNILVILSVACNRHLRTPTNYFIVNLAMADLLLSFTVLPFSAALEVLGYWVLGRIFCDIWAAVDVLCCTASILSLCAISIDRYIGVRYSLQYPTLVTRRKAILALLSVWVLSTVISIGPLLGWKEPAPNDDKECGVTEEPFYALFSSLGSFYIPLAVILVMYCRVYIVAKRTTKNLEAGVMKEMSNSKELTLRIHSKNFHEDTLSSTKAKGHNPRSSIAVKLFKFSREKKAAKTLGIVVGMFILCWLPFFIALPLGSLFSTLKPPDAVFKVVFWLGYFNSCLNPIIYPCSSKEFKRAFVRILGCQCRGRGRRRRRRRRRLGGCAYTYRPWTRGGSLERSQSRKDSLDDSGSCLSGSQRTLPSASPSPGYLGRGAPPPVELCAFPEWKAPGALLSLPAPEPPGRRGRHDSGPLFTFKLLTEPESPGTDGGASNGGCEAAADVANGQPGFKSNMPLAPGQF
Method: Competition binding assays: These compounds were characterized for their ligand binding properties at the α1-AR subtypes. The binding affinities of Compounds 1-10 were determined in a series of competition-binding experiments with the α1-AR-selective antagonist [^125I]HEAT as the radioligand. Assays were performed in duplicate in HEM buffer, in a total assay volume of 1000 μl. Radioligand binding assays are composed of 5 ug of membranes, harvested from Rat-1 fibroblast cells expressing only one of the alpha1-AR subtypes, HEM buffer containing GTP (composed of 20 mM HEPES, pH 7.4, 1.4 mM EGTA, 12.5 mM MgCl2, pH to 7.4), 0.5 mM GTP, 35-80 pM^125I-HEAT, and various doses of norepinephrine or epinephrine and incubated with shaking at 25° C. for 1-2 hours. The above conditions will convert all the conformations of the receptor into a single low affinity site. To show both high and low affinity sites of the receptor (typically seen with GPCR agonists), the GTP is removed from the binding buffer. Nonspecific binding was determined experimentally in the presence of 10^−4 M phentolamine. Unbound radioactivity was separated from membrane-bound radioactivity by filtration through Whatman GF/C filter paper. […] Bound radioactivity remaining on the filters was counted on an ICN gamma counter operating at 79.8% efficiency. Data are analyzed using Graphpad Prism. […]

[4] = biological target: T1, α1B-AR; experiment: cAMP assay at α1B-AR; assay type: cell-based
Method: cAMP assay: Cells expressing a single α1-adrenergic receptor subtype are washed and re-plated into 24-well plates in DMEM media without serum at approximately 2.4×10^4 cells/well. Cells are allowed to rest till the next day in a CO2 incubator at 37° C. The cells are washed twice with DMEM (no serum), then 1 ml of DMEM is added to each well. Cells are pre-incubated for 45 mins-1 hour at 37° C. in a CO2 incubator with 10 uM propranolol, followed by 100 uM IBMX for 30 minutes. Final DMSO concentration is at 0.05%. Norepinephrine or epinephrine is added in a dose response (1 dose per well) in addition to one of the Compounds 1-10 at one concentration (i.e. 10^−5M). Cells are incubated for another 30 mins at 37° C. in a CO2 incubator. The reaction is concluded by aspirating the media and adding 0.1M HCL. The mixture is incubated for 20 mins at room temperature. The cells are scraped and suspended until homogenous. The mixture is centrifuged at 1000 g for 10 mins and the supernatant assayed the same day according to a manufacturer's cAMP kit (Cayman Select Cyclic AMP EIA kit #501040).

## CC(C)Cc1c(OCC2=NCCN2)cccc1N(C)S(C)(=O)=O [Compound 3, N-[3-(4,5-Dihydro-1H-imidazol-2-ylmethoxy)-2-isobutyl-phenyl]-N-methyl-methanesulfonamide]
[1]; female 3×TG mice
  paired pulse ratio (PPR) vs untreated, female: higher
[1]; female 3×TG mice, CA1, approaching significance
  basal synaptic transmission / synaptic strength (input-output): increase synaptic strength; also recorded: increased
[1]; female AD mice, 12 months of age, CA1
  long term potentiation (LTP) vs untreated: statistically significant (p<0.01)
[1]; male 3×TG mice
  paired pulse ratio (PPR) vs untreated, male: increased PPR
[2]
  blood pressure, treated vs placebo: no changes in blood pressure
[3]
  effect on affinity of norepinephrine at the α1B-AR: no effect; also recorded: does not increase the affinity of norepinephrine
[4]
  effect on norepinephrine cAMP response at the α1B-AR: no effect
